Structures are written as SMILES.

Experiment [1] deals with T1, KRAS G12V (Homo sapiens, UniProt P01116, G12V). Kind of experiment: Guanine nucleotide binding assay. Set-up: made in house; host or cells: E. coli BL21 (DE3). The following applies: in the presence of compound, 37° C., liquid scintillation counting. Here is the method:
The recombinant gene KRAS G12V was inserted into E. coli BL21 (DE3) for expression. The overexpressed protein was purified using affinity chromatography and gel filtration chromatography. Purified KRAS G12V protein was bound to Ni-NTA beads using binding buffer [50 mM Hepes (pH 7.5), 100 mM NaCl, 2 mM MgCl2, 1 mM EDTA, and 1 mM DTT] at 4° C. Ni-NTA beads bound with KRAS G12V proteins were washed with binding buffer and then reacted with radioisotope [α-^32P] GTP (2,500 cpm/pmol), GTP, and salvianolic acid B or tanshinone I at 37° C. The beads were then washed with wash buffer [20 mM Tris-HCl (pH 7.4), 100 mM NaCl, and 2 mM MgCl2]. 200 mM imidazole was used to elute the bead-bound KRAS G12V protein, and radioactive nucleotides were quantified by liquid scintillation counting.

The target in experiment [2] is T1, KRAS G12V. Kind of experiment: Isothermal titration calorimetry (ITC). As to conditions: 25° C., read-out: binding affinity KD. Here is the method: In order to identify the affinity of salvianolic acid B or tanshinone I for the KRAS mutant KRAS G12V protein, isothermal titration calorimetry (ITC) was used. KRAS G12V protein was dialyzed using buffer [20 mM Tris-HCl (pH 7.4), 100 mM NaCl, and 2 mM MgCl2]. Next, salvianolic acid B or tanshinone I was dissolved using the same buffer, and then the prepared KRAS G12V protein and salvianolic acid B or tanshinone I were injected into an isothermal calorimeter to perform isothermal titration thermometry. Titration measurement was performed at 25° C., involved with 20 injections at an interval of 200 seconds while salvianolic acid B or tanshinone I was stirred at 1,000 rpm. ΔS was calculated from standard thermodynamic equations using the calculated K and ΔH values. Isothermal titration thermometric analysis was performed using a MicroCal AutoITC200 (GE Healthcare, Sweden), and data were analyzed using the Origin 7.0 program.

The test system of another experiment is HCT116 (colon cancer). Kind of experiment: MTT cell viability assay. The following applies: HCT116, cultured 24 and 48 hours, increasing concentrations; time- and dose-dependent. Type of experiment: cell-based, human. Here is the method:
(§1) To verify the efficacy of salvianolic acid B (Sigma-Aldrich) and tanshinone I (Sigma-Aldrich) on tumor cells, MTT (3-(4,5-dimethylthiazol-2-yl)-2,5-diphenyltetrazolium bromide) assay was applied to measure cell viability.
(§2) For the experiment, AsPC-1 (pancreatic cancer), HCT116 (colon cancer), and NCI-H460 (lung cancer) were used as tumor cell lines, and each tumor cell was dispensed by 1×10^3 cells/well (100 μL). After dispensing, all cells were attached to the wells for 24 hours. […] After culturing the drug-treated tumor cells for 24 and 48 hours, MTT at a concentration of 5 mg/mL was added to each tumor cell, followed by culture for 90 minutes again. Finally, the optical density (OD) of the tumor cells was measured at 540 nm using a microplate reader (Molecular Devices, USA). The analysis was performed three or more times.
In general terms: Tetrazolium dyes change colour on reduction, which living cells bring about.

In experiment [3] the test system is AsPC-1 (pancreatic cancer). Kind of experiment: MTT cell viability assay. Type of experiment: cell-based, human. As to conditions: AsPC-1, cultured 24 and 48 hours, increasing concentrations; time- and dose-dependent. As for the experimental part: as §1, §2
A further experiment has as its system NCI-H460 (lung cancer). Kind of experiment: MTT cell viability assay. Type of experiment: cell-based, human. The following applies: NCI-H460, cultured 24 and 48 hours, increasing concentrations; time- and dose-dependent. As for the experimental part: as §1, §2

T1 sequence (P01116 1-188 isoform P01116-2 G12V): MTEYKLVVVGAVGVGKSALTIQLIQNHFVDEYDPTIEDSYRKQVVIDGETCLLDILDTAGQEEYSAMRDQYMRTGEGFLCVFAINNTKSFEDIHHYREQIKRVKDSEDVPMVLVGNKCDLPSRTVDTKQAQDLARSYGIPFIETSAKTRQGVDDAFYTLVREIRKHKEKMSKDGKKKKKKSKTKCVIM

As a reminder, the Kd is a measure of binding affinity in units of concentration. With `Cc1coc2c1C(=O)C(=O)c1c-2ccc2c(C)cccc12` [tanshinone I], the “activity of radioisotope [α-32P] GTP binding of KRAS G12V” value on KRAS G12V [1] is recorded as “decreased”. Moreover, the Kd on KRAS G12V [2] is 21 µM. For the same compound, the cell viability entry (in the experiment on HCT116 (colon cancer); in experiment [3]; in the experiment on NCI-H460 (lung cancer)) was “decrease in cell viability” each time.
`O=C(/C=C/c1ccc(O)c2c1[C@H](C(=O)O[C@H](Cc1ccc(O)c(O)c1)C(=O)O)[C@@H](c1ccc(O)c(O)c1)O2)O[C@H](Cc1ccc(O)c(O)c1)C(=O)O` [salvianolic acid B]: the “activity of radioisotope [α-32P] GTP binding of KRAS G12V” value on KRAS G12V [1] is “decreased”. The Kd at KRAS G12V [2] was determined as 32 µM. Further, the cell viability entry (in the experiment on HCT116 (colon cancer); in experiment [3]; with NCI-H460 (lung cancer)) was “decrease in cell viability” in each case.

For the origin of these results see patent US20230147718A1, “COMPOSITION FOR CANCER PREVENTION OR TREATMENT, CONTAINING, AS ACTIVE INGREDIENT, SALVIANOLIC ACID B OR TANSHINONE I” (GJMEDI, priority 2020, published 2023).
